Assay results from ChEMBL document CHEMBL1201862, “PubChem BioAssay data set” (2004).
The source made the active and inactive calls.

Experiments:
Vero [1] = experiment: cells; assay type: functional; settings: Chlorocebus sabaeus
Vero [2] = experiment: cells; assay type: functional, cell-based; settings: Chlorocebus sabaeus
[3] = C. albicans growth with fluconazole, confirmation, fluorescence, retest (AID 2467); assay type: functional, cell-based
[4] = NIH-3T3 fibroblast cytotoxicity, dose response, cytotoxicity control, cell-based, fluorescence, Alamar Blue, secondary assay (AID 2327); assay type: functional;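 further: NIH-3T3 mouse fibroblasts cultured with fluconazole at 8 µg/mL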
Exodeoxyribonuclease V = biological target: T1, Exodeoxyribonuclease V (Escherichia coli (strain K12), UniProt P04993+P07648+P08394); experiment: E. coli RecBCD inhibitors, dose response, counter-screen for AddAB inhibitor project, absorbance, V66 E. coli, mutant T4 phage (AID 492957); assay type: functional, cell-based, Escherichia coli str. K-12 substr. MG1655
T1 sequence (P04993 whole entry): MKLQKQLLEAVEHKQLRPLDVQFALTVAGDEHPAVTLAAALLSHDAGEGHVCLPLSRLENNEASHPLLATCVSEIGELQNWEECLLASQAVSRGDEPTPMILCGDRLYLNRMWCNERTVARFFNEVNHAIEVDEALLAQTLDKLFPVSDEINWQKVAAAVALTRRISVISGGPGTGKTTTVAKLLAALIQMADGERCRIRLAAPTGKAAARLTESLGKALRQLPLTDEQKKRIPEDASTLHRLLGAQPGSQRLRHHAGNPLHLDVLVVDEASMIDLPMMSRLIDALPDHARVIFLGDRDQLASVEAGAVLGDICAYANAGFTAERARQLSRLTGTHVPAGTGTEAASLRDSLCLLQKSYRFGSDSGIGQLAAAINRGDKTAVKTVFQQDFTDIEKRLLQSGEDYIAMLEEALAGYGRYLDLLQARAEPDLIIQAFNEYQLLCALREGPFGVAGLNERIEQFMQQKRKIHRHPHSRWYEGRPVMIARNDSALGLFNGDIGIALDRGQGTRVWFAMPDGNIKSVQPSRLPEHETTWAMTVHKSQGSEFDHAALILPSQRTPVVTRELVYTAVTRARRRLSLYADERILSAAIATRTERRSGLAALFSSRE
T1 sequence (P07648 whole entry): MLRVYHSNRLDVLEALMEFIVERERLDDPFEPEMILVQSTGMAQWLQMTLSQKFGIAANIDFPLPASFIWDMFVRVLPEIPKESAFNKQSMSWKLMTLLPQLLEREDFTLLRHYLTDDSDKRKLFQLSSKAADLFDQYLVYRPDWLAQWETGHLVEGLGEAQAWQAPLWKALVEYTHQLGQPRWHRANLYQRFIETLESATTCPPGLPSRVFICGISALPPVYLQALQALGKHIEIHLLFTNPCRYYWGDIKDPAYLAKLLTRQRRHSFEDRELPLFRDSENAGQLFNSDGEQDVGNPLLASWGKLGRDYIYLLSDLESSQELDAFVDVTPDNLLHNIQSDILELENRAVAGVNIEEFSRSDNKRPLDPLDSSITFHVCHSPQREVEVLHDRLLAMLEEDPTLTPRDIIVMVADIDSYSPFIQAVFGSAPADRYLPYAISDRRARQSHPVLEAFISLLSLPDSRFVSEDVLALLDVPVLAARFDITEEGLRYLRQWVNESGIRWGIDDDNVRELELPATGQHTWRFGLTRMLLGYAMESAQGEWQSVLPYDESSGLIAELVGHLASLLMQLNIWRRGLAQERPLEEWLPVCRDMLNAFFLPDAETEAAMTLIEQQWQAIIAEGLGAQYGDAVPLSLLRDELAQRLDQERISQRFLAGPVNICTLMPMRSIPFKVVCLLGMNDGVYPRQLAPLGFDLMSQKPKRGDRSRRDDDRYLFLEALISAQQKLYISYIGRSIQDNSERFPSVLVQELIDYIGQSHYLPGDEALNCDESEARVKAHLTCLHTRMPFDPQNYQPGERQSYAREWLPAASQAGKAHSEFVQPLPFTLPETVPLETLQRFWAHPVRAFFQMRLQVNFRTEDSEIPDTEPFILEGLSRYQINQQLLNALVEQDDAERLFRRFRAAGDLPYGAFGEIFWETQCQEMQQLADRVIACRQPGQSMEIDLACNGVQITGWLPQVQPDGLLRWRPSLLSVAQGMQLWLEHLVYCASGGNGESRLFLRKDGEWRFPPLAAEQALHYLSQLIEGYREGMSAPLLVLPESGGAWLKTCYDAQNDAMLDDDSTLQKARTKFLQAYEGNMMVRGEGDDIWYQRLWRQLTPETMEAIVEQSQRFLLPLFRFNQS
T1 sequence (P08394 whole entry): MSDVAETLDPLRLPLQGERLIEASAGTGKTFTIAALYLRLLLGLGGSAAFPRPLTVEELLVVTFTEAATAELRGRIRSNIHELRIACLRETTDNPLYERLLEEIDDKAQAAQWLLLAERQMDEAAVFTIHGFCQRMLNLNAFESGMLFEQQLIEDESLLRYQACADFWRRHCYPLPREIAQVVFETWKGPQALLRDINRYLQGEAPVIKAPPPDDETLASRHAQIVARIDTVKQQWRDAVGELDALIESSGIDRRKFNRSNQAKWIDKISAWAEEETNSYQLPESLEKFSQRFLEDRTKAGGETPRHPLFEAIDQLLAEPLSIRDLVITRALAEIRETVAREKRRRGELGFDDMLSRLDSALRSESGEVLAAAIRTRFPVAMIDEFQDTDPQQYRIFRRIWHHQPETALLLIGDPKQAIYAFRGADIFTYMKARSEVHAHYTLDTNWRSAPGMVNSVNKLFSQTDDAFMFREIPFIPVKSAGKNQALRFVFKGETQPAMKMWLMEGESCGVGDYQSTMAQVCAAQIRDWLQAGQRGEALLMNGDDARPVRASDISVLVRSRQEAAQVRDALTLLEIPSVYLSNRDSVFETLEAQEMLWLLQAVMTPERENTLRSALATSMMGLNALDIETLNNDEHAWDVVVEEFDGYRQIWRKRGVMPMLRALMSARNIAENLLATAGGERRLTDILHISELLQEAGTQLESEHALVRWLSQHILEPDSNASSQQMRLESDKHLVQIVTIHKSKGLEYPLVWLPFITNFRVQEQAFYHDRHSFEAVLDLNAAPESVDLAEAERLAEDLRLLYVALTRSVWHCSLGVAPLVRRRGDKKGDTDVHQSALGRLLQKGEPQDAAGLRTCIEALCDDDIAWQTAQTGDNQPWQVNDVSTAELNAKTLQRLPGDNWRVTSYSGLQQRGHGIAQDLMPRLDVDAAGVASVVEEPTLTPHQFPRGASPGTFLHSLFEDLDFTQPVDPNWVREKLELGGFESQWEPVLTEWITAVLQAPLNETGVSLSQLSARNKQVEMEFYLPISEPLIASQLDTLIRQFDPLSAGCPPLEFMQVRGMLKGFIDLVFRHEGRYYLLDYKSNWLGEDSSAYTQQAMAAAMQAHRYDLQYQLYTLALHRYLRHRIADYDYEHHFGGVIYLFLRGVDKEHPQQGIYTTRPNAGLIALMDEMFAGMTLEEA

[5] = Counterscreen for AddAB inhibitors: absorbance-based bacterial cell-based high throughput dose response assay for inhibitors of bacterial viability. [Related pubchem assays (depositor defined):AID435030, AID449728, AID449731, AID488942, AID488955, AID488956]; assay type: functional
[6] = cytotoxicity in HMLE control line with eGFP shRNA, dose response, counter-screen for HMLE_sh_ECad selective toxicity project, cell-based, HMLE_sh_eGFP, luminescence (AID 463074); assay type: functional, Homo sapiens;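 further: HMLE human mammary epithelial cells expressing control shRNA against eGFP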
[7] = Luminescence Cell-Based Dose Retest to Confirm Inhibitors of Cancer Stem Cells. [Related pubchem assays (depositor defined):AID2717, AID2721]; assay type: functional; settings: Homo sapiens
Cytochrome P450 2D6 = Cytochrome P450 2D6 (Homo sapiens, UniProt P10635);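 further: CYP2D6 member of a cytochrome P450 panel assay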
Cytochrome P450 2C19 = Cytochrome P450 2C19 (Homo sapiens, UniProt P33261); experiment: Cytochrome panel assay with activity outcomes. Panel member name: p450-cyp2c19 Compounds with AC50 equal or less than 10 uM are considered active; assay type: functional
Cytochrome P450 3A4 = Cytochrome P450 3A4 (Homo sapiens, UniProt P08684);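 further: CYP3A4 tested as one member of a cytochrome P450 panel screen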
[8] = biological target: T2, RNA-binding protein pos-1 (Caenorhabditis elegans, UniProt G5EF15); experiment: inhibitors of POS-1/mex-3 RNA binding, dose response, biochemical, fluorescence polarization (AID 1964);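 further: purified POS-1 fused to maltose binding protein made in E. coli; potency of compounds blocking POS-1 binding to fluorescent RNA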
T2 sequence (G5EF15 whole entry): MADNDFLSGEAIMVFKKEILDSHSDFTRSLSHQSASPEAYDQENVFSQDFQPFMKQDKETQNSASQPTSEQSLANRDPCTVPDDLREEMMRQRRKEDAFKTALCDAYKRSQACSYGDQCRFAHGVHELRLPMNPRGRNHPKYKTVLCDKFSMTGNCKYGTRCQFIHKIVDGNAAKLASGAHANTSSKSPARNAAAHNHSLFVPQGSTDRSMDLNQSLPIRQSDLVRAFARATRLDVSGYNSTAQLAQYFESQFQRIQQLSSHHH

[9] = biological target: T3, Zinc finger protein mex-5 (Caenorhabditis elegans, UniProt Q9XUB2); experiment: MEX-5/TCR-2 RNA interaction inhibitors, dose response, biochemical, C. elegans, fluorescence polarization (AID 1960)
T3 sequence (Q9XUB2 whole entry): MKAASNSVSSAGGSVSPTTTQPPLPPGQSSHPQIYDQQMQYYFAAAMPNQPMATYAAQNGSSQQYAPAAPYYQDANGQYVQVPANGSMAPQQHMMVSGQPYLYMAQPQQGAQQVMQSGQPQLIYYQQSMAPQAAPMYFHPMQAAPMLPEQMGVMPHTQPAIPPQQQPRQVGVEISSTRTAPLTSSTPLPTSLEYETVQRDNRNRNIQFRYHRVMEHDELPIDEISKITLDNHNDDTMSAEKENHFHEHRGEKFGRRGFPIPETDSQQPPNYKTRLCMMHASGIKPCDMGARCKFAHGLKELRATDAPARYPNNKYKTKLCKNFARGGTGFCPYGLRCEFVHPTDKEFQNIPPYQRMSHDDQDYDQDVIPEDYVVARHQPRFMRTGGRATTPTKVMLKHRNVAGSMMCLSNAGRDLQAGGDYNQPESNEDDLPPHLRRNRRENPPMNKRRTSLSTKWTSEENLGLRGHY

[10] = cytotoxicity in HEK-293T NF-kB-Luc cells, dose response, cytotoxicity control for B/T-cell NF-kB inhibitor project, cell-based, uHTS hits (AID 489019); assay type: functional;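 further: IC50 reflects cytotoxicity as loss of cell viability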
Jurkat = experiment: antigen receptor-induced NF-kB inhibitors, dose response, Jurkat, luciferase reporter, luminescence, B- and T-cell (AID 489004); assay type: functional, cell-based; settings: Homo sapiens;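 further: NF-kB luciferase reporter Jurkat cells stimulated with PMA plus ionomycin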
[11] = microbe, parasite or virus in culture; assay type: functional; settings: Mycobacterium tuberculosis

Chain of Cytochrome P450 2D6 (P10635 whole entry): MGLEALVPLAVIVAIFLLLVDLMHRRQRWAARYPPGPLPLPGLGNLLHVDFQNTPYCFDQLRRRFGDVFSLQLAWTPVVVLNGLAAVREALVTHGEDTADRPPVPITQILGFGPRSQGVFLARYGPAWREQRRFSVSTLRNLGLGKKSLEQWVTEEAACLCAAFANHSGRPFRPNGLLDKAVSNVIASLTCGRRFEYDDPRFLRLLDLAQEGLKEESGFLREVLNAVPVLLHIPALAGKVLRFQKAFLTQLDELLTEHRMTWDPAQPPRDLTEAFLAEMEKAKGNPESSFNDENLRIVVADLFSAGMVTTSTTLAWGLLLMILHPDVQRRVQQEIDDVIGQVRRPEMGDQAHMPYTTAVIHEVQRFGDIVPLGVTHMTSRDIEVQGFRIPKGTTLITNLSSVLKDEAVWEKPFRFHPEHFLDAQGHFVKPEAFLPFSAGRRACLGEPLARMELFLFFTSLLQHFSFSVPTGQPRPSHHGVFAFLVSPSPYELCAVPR
Chain of Cytochrome P450 3A4 (P08684 whole entry, the tested form may be a part): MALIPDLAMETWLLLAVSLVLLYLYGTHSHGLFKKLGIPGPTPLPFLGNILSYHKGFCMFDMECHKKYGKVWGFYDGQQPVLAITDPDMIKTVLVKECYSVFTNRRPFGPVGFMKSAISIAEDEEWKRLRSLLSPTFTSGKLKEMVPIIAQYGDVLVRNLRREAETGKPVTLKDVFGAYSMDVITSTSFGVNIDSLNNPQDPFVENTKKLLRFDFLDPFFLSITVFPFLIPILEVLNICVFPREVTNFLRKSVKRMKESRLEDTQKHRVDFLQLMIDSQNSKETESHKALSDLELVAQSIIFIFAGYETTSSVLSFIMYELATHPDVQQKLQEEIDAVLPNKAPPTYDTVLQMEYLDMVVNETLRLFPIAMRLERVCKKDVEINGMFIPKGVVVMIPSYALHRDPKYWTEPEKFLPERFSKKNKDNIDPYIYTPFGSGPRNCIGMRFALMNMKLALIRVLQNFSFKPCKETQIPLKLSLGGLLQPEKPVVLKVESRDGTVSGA
Chain of Cytochrome P450 2C19 (P33261 whole entry): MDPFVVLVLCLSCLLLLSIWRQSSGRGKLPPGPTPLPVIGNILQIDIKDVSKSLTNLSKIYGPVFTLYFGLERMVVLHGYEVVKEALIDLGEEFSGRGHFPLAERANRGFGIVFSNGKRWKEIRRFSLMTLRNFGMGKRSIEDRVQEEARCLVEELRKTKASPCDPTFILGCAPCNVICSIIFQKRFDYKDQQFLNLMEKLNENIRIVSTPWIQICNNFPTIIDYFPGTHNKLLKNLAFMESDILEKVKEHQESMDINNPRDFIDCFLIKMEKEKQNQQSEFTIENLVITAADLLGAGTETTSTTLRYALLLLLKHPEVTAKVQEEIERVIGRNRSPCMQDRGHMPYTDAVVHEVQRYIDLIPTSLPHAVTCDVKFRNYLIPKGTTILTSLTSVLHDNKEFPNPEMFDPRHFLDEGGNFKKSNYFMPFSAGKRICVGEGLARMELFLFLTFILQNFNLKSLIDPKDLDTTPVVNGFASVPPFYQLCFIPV

SMILES: CCN1CCN(C(=O)C2CCN(Cc3nc(-c4cccc(Cl)c4)oc3C)CC2)CC1
- CC50 (Vero [1]): > 25 µM (active)
- IC50 (Vero [2]): > 25 µM (active)

SMILES: O=C(NNC(=O)c1cc(-c2ccncc2)nc2ccccc12)c1ccccc1O
- EC50 [3]: 3.18 µM (active)
- EC50 [4]: > 160 µM (inactive)
- IC50 (Exodeoxyribonuclease V): > 119 µM (inactive)
- IC50 [5]: > 119 µM (inactive)

SMILES: Cc1csc(NC(=O)c2ccc(COc3ccccc3)o2)n1
- AC50 [6]: 32.2 µM (active)
- AC50 [7]: 2.62 µM (active)

SMILES: C[C@@H](O)CC(C)(C)N.Oc1c(Cl)c(Cl)c(Cl)c(Cl)c1Cl
- AC50 (Cytochrome P450 2D6): inactive
- AC50 (Cytochrome P450 2C19): inactive
- AC50 (Cytochrome P450 3A4): inconclusive

SMILES: CC(=O)Oc1cc2cccc(OC(C)=O)c(=O)c2c(OC(C)=O)c1OC(C)=O
- EC50 [8]: 5.6 µM (active)
- IC50 (Exodeoxyribonuclease V): > 119 µM (inactive)
- IC50 [5]: > 119 µM (inactive)
- EC50 [9]: 2.01 µM (active)

SMILES: ClCCn1cnc2c(SCc3ccccc3Cl)ncnc21
- IC50 (Vero [2]): < 0.05 µM (active)

SMILES: COc1ccc(C(=O)C=Cc2ccc(OCc3ccccc3)c(OC)c2)cc1OC
- CC50 (Vero [1]): 20.9 µM (active)

SMILES: CC(C)(CN)CN
- AC50 (Cytochrome P450 2D6): inconclusive

SMILES: c1ccc2sc(Sc3ncnc4sccc34)nc2c1
- IC50 [10]: > 80 µM (inactive)
- IC50 (Jurkat): 0.41 µM (active)
- CC50 [11]: 32.9 µM (active)
